These results are taken from ChEMBL document CHEMBL1201862, “PubChem BioAssay data set” (2004).

The source made the active and inactive calls. Some results are limits rather than exact numbers.

The IC50 is the concentration that gives 50% inhibition. In general, EC50 refers to the concentration giving half of the maximal effect. A word on the CC50: it is the concentration that lowers cell viability or growth by half. Broadly, the AC50 is the concentration giving half of the maximal activity seen.

One test addresses Genome polyprotein (Hepatitis C virus, UniProt Q2Q167). As to the kind of experiment: disruption of hepatitis C core self-association – biochemical, TR-FRET, dose response (AID 2159).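 Also: blocks dimerization of HCV core protein measured by TR-FRET between tagged core106 pairs.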 Further details: species or system Hepacivirus hominis.
Test [1] can be described thus: luciferase reporter signal suppression in cells – H4 neuroglioma cells, luminescence, dose response (AID 1990). It counts as functional, cell-based.
The target of test [2] is T1, Photoreceptor-specific nuclear receptor (Homo sapiens, UniProt Q9Y5X4). The format is functional.
A short description of test [3]: Luminescence Cell-Based Dose Response HTS to Identify Inhibitors of 5'UTR Stem-Loop Driven Prion Protein mRNA Translation in H4 Neuroglioblastoma Cells. [Related pubchem assays: 1827 (Project Summary), 1813 (Primary HTS)]. The format is functional.
The nature of test [4]: alpha-synuclein stem-loop luciferase translation blockers – H4 neuroglioma cells, luminescence, confirmation (AID 1988). The format is functional, cell-based.
Test [5] deals with Beta-lactamase (Pseudomonas aeruginosa, UniProt Q79MP6).
In test [6] the target is T2, Peroxisome proliferator-activated receptor gamma/Nuclear receptor corepressor 2 (Homo sapiens, UniProt P37231+Q9Y618). The format is functional.
In test [7] the target is Beta-lactamase (Salmonella choleraesuis (strain SC-B67), UniProt Q5J463).
Test [8] is described as follows: Cytotoxicity screening for potential Inhibitors of Bacterial Capsule Biogenesis. [Related pubchem assays (depositor defined):AID488970]. The format is functional.
Test [9] concerns the target Histone-lysine N-methyltransferase NSD2 (Homo sapiens, UniProt O96028). It counts as biochemical.
The nature of test [10]: viability inhibitors of stage V gametocytes – luminescence, dose response (AID 1117278).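 Also: gametocytes exposed to compound for 24 hours.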 It counts as functional, cell-based.
Test [11] can be described thus: viability loss in human Jurkat cells – cell-based, luminescence, cytotoxicity control for P. falciparum gametocyte viability project, dose response (AID 1117277).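 Also: potency reflects loss of cellular ATP meaning fewer viable cells.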 It counts as functional.
In test [12] the target is T2, Peroxisome proliferator-activated receptor gamma/Nuclear receptor corepressor 2. The experiment in a line: Counterscreen for NR2E3 inverse agonists: TR-FRET-based biochemical high throughput dose response assay to identify inverse agonists of the interaction between peroxisome proliferator-activated receptor gamma (PPARg) and nuclear receptor co-repressor 2 (NCOR2). The format is functional. A general note: A counterscreen serves to expose hits that act by an unwanted route or on another target.

In test [13] the target is T1, Photoreceptor-specific nuclear receptor. As to the kind of experiment: ligands suppressing NR2E3 nuclear receptor activity – biochemical, TR-FRET, dose response (AID 463256). It counts as functional. On the technique in general: TR-FRET usually uses a lanthanide donor and a delayed reading to cut background.
Test [14] is described as follows: M. tuberculosis growth inhibition, HTS (AID 449762). It counts as functional.
In a further test the target is Ephrin type-A receptor 4 (Mus musculus, UniProt Q03137). As to the kind of experiment: EphA4 ligand-binding antagonists – biochemical, colorimetric, mouse EphA4, primary screen (AID 689). It counts as functional.
In test [15] the target is Heat shock protein HSP 90-alpha (Homo sapiens, UniProt P07900). As to the kind of experiment: Luminescence-based dose response biochemical high throughput screening assay for inhibitors of the Heat Shock Protein 90 (HSP90). [Related pubchem assays: 1831 (Summary AID.), 1846 (Confirmation screen.), 1789 (Primary screen.)].
The target of test [16] is T3, Low molecular weight phosphotyrosine protein phosphatase (Homo sapiens, UniProt P24666).
T3 sequence (P24666 whole entry): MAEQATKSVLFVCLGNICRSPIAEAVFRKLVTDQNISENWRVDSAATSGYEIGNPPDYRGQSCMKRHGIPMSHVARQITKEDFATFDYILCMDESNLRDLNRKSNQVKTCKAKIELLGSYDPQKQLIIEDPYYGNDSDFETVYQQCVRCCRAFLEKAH
As to the kind of experiment: inhibition of LMPTP-A enzymatic activity – biochemical, OMFP substrate, fluorescence intensity, set 2, dose response (AID 743307). The format is functional.

The target of test [17] is T3, Low molecular weight phosphotyrosine protein phosphatase. The experiment in a line: inhibition of human LMPTP enzyme activity – biochemical, absorbance, pNPP substrate, LMPTP-A isoform, set 2, orthogonal assay, dose response (AID 743308). The format is functional.
Test [18] can be described thus: antifungal activity, alamar blue, dry powder, counter-screen for C. neoformans cell wall antifungals, dose response (AID 743128). The format is functional, organism-based. In general terms: The colour change of resazurin is a common sign of viable cells or microbes.
Test [19] is described as follows: rise of 2N DNA cells, HeLa – IC50, dose response (AID 1117349). It counts as functional, cell-based.
Test [20] can be described thus: IC50 of insulin release inhibition, rat insulinoma INS-1E line, 5 mM glucose, cell-based (AID 1117331). It counts as functional.
A short description of test [21]: glucagon-like peptide-1 release potency in STC-1, concentration-response, half-maximal inhibitory concentration in the STC-1 line (AID 1117345). The format is functional, cell-based.
Test [22] in a line: rise of 4N DNA cells, HeLa – IC50, dose response (AID 1117351). The format is functional, cell-based.
Test [23] is described as follows: Potency on glucagon-like peptide 1 release, dose-response in NCI-H716 cell line, half maximal inhibitory concentration (AID 1117344). It counts as functional, cell-based.
The next test concerns Danio rerio. As to the kind of experiment: In Vivo Angiogenesis Dose-Response Confirmation. [Related pubchem assays: 732 (Assay preceding this confirmatory assay.)]. It counts as functional, organism-based.

T1 sequence (Q9Y5X4 whole entry): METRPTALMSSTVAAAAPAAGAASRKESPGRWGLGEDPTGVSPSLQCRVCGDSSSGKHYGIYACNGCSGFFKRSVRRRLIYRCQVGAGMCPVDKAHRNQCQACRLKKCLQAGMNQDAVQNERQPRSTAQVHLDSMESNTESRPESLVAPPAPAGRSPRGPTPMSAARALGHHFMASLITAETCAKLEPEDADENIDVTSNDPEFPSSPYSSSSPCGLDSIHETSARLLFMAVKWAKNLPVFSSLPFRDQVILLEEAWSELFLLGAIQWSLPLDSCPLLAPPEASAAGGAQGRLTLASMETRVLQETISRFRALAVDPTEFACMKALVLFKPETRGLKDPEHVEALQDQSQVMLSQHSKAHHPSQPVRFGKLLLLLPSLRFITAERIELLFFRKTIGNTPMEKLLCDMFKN
T2 sequence (P37231 whole entry): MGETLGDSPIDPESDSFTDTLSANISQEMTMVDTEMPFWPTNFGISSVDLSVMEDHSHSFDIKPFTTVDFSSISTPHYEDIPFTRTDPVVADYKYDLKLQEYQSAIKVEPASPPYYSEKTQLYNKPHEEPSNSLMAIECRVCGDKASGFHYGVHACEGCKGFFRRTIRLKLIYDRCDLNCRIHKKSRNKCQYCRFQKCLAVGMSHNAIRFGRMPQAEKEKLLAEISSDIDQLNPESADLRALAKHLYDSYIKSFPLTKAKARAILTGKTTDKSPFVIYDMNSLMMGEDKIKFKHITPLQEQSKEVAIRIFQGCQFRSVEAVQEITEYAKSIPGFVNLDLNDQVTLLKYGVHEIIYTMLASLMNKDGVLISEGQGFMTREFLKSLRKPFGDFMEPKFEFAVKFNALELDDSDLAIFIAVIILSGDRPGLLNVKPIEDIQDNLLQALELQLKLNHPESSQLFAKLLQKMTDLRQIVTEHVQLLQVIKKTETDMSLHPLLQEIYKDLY
T2 sequence (Q9Y618 whole entry): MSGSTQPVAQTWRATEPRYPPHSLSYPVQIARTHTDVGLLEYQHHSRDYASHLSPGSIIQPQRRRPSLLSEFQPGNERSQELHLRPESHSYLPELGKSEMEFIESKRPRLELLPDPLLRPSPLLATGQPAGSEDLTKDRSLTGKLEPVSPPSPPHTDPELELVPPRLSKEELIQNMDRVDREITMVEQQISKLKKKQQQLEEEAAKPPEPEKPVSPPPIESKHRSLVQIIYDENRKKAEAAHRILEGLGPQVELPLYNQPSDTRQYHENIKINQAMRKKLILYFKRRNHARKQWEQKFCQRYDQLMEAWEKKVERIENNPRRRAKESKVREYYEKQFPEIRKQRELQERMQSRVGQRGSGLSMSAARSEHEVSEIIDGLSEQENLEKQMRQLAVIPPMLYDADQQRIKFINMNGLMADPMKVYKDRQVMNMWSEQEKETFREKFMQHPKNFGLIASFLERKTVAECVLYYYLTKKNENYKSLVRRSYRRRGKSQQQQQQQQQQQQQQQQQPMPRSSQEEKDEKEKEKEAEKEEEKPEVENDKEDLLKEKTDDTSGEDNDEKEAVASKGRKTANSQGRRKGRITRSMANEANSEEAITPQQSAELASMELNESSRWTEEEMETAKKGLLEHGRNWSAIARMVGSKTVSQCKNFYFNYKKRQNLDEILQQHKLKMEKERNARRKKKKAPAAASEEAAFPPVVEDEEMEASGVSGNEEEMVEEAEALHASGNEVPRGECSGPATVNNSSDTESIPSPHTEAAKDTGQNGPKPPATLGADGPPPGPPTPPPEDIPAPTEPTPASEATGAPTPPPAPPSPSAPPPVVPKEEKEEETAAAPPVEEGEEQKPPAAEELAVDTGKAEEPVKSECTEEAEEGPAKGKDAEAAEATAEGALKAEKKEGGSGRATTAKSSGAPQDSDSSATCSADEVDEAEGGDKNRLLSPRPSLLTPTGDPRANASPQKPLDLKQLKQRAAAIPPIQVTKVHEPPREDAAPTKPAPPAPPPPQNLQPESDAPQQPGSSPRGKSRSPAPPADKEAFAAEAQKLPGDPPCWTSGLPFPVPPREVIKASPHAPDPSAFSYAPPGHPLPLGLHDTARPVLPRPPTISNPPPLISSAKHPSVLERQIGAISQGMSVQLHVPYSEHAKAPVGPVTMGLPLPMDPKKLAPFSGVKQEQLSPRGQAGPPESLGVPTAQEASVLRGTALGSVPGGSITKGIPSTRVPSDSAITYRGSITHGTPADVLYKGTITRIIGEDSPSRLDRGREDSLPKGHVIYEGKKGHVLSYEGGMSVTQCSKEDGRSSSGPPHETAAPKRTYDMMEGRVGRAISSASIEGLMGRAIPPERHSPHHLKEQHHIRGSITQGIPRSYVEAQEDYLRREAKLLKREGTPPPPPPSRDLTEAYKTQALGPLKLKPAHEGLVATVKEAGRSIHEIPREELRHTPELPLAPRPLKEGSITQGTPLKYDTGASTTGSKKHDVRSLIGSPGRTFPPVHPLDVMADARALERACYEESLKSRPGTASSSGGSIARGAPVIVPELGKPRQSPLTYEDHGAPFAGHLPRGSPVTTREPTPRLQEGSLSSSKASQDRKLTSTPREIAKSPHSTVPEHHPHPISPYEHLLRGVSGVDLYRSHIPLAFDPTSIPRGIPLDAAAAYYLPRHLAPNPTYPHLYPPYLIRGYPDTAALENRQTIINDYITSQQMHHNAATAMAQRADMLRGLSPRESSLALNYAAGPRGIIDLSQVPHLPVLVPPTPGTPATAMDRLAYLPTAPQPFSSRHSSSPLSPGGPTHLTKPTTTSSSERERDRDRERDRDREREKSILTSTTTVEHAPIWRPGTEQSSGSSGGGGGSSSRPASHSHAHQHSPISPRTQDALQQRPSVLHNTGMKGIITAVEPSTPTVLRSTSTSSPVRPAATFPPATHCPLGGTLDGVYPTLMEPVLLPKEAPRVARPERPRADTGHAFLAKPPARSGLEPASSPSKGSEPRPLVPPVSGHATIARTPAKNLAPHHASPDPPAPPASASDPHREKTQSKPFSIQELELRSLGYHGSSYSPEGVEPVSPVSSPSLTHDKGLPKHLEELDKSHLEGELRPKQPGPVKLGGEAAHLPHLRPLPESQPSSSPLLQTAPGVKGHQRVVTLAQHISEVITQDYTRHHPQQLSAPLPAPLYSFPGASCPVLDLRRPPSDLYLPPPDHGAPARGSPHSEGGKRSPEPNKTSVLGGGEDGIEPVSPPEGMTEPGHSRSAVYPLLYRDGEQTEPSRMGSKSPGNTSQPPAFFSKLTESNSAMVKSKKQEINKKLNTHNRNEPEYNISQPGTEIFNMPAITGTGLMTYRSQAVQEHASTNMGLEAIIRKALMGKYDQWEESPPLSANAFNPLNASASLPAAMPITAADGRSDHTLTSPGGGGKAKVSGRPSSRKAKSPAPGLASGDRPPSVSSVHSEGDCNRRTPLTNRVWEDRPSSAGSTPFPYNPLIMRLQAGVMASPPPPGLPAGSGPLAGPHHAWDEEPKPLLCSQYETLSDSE
Chain of Beta-lactamase (Pseudomonas aeruginosa, UniProt Q79MP6) (Q79MP6 whole entry): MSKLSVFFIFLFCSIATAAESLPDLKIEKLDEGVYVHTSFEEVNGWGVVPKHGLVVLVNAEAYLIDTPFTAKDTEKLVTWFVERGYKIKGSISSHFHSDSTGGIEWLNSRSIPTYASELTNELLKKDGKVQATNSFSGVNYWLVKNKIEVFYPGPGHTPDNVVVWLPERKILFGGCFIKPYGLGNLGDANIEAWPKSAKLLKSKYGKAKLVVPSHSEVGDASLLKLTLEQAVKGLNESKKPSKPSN
Chain of Genome polyprotein (Q2Q167 whole entry): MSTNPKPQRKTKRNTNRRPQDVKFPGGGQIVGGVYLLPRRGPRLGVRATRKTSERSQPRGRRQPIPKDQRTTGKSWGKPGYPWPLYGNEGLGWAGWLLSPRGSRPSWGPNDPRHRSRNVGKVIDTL
Chain of Ephrin type-A receptor 4 (Q03137 whole entry): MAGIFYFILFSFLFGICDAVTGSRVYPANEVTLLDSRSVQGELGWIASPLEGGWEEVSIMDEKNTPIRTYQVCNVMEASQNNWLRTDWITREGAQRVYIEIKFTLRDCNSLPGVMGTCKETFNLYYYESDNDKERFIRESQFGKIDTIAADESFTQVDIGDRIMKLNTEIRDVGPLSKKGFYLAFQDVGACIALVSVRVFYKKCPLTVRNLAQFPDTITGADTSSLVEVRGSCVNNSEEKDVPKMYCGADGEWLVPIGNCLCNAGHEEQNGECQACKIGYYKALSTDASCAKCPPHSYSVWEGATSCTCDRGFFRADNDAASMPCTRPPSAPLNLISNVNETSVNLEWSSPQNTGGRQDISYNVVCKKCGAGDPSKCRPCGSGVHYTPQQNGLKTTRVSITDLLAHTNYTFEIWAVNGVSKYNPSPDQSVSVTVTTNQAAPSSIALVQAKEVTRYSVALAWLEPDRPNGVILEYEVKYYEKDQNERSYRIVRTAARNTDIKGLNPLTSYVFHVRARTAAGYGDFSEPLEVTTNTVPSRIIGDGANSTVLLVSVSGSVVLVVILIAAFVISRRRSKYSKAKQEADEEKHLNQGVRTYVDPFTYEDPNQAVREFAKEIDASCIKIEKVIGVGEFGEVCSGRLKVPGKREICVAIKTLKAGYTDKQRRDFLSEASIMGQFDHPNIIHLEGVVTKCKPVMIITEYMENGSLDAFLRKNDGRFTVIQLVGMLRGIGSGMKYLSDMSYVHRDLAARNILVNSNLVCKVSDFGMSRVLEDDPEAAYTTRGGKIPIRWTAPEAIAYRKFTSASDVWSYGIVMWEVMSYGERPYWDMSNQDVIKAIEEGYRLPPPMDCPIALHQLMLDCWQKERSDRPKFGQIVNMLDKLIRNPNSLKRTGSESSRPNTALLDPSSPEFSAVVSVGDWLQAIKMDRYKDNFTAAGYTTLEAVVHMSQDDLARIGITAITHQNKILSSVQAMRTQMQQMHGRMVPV
Chain of Beta-lactamase (Salmonella choleraesuis (strain SC-B67), UniProt Q5J463) (Q5J463 whole entry): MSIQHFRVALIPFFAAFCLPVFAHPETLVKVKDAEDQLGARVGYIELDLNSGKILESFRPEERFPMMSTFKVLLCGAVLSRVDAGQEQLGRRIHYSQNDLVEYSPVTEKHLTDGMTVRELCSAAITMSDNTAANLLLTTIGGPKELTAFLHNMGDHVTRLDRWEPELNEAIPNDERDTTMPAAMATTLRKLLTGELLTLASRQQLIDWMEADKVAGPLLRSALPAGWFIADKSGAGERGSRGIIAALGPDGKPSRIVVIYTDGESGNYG

As to `CCN(CC)c1ccc2c(-c3ccc(S(=O)(=O)O)cc3S(=O)(=O)[O-])c3ccc(=[N+](CC)CC)cc-3oc2c1`, the IC50 against Genome polyprotein was > 49.8 µM (not active); in test [2], > 39.8 µM (not active); on Beta-lactamase [5] it was > 59.6 µM (inactive); in test [6] it was 1.02 µM (active); on Beta-lactamase [7], > 59.6 µM (inactive). For the same compound, the EC50 in [1] is 11.7 µM (active); in [3], 11.4 µM (active); in test [4], 9.58 µM (active). Also, in [8], the CC50 was 18.4 µM (active). Besides, the AC50 in test [9] was > 20 µM (inactive).

As for `CC(=O)c1ccc(NC(=O)c2ccc(S(=O)(=O)c3ccccc3)cc2)cc1`, the IC50 in [10] is > 109 µM (inactive); in test [11], > 83.3 µM (inactive).

As to `Cc1ccc(-c2cc(C(=O)NCc3cnn(C)c3)c3cc(Br)ccc3n2)cc1`, the results for the IC50 in [12] and in test [13] were 1.56 µM (active) and 2.99 µM (active), respectively.

As for `O=C(COc1cc(O)c2c(=O)c3ccccc3oc2c1)OCc1ccccc1`, the IC50 in test [14] was > 100 µM (active).

Regarding `CCN(CCNC(=O)C1CCCN(S(=O)(=O)CC)C1)c1ccccc1` (stereo unspecified), the IC50 at Ephrin type-A receptor 4 is reported as > 100 µM (not active).

`CC(=O)c1ccc(N=Nc2c(C)[nH]n(-c3ccccc3)c2=O)cc1`: the IC50 in test [15] was 4.4 µM (active).

Regarding `CN(C)CCNc1nc(-c2ccccc2)nc2ccccc12`, the IC50 in test [16] was 58.1 µM (inactive); in test [17], > 80 µM (inactive).

For the compound `CCOC(=O)c1c(-c2ccc(F)cc2)csc1NC(=O)CN1CCN(CC)CC1`, in [18], the AC50 is 42.5 µM (active).

Regarding `CCCCCCCCCCCCCCCCCCNC(=O)OC1CCN(C(=O)OC[C@H](COC(=O)N(Cc2cccc[n+]2CC)C(=O)c2ccccc2OC)OC)CC1` [MINOPAFANT], the IC50 in test [19] was > 10 µM (inactive); in test [20], 21.7 µM (inactive); in test [21], 13.8 µM (inactive); in [22], > 10 µM (inactive); in test [23], 9.52 µM (inactive).

As for `COc1cc2ncnc(Nc3cccc(Cl)c3)c2cc1OC` [TYRPHOSTIN AG-1478], the IC50 with Danio rerio is given as 12.7 µM (not active).
